Patent publication US10357035B2, “Microbiocidal anilide derivatives” (SYNGENTA PARTICIPATIONS AG, priority 2015, dated 2019)

| melting point [°C] | SMILES |
| --- | --- |
| 114 to 117 | COc1ccnc(C(=O)Nc2ccc(OC3CCCCC3)cc2)c1O [I.b.66, N-[4-(cyclohexoxy)phenyl]-3-hydroxy-4-methoxy-pyridine-2-carboxamide] |
| 130 to 132 | CC1(C)CCC(Oc2ccc(NC(=O)c3cccc4ncoc34)c(F)c2)CC1 [I.r.133, N-[4-(4,4-dimethylcyclohexoxy)-2-fluoro-phenyl]-1,3-benzoxazole-7-carboxamide] |
